Tests used:
[1] = target: T1, recombinant human Wee1A kinase (Homo sapiens, UniProt P30291); test: Wee1A kinase binding assay (LanthaScreen Eu time-resolved FRET); settings: 30 nM tracer 178, 5 nM Wee1A kinase, 2 nM Eu-labeled antibody; 60 minutes at room temperature; read-out: Wee1A kinase Binding IC50
T1 construct: full length Wee1 kinase was expressed by baculovirus in insect cells; purchased Invitrogen PV3817; host or cells: insect cells (baculovirus)
Description: This time resolved-FRET binding assay was performed in white 384-well low volume plates (Greiner, cat #784075), at room temperature in kinase buffer A (KBA; Invitrogen cat #PV3189), consisting of 50 mM HEPES-NaOH (pH 7.5), 0.01% Brij-35, 10 mM MgCl2, and 1 mM EGTA. 5 μL of compound (diluted in reaction buffer, to 1% DMSO) were added to various wells in the plate, followed by 5 μL each of recombinant human Wee1A kinase (full length Wee1 kinase was expressed by baculovirus in insect cells using a N-terminal GST tag (MW: 99.1 kDa) (Invitrogen cat #PV3817) and LanthaScreen Eu-anti-GST antibody (Invitrogen, cat #PV5594). After this, 5 μL of kinase tracer 178 (Invitrogen, cat #PV5593) was added to the plate and the plate was incubated for 60 minutes at room temperature. The final assay conditions in each well were: 30 nM tracer 178, 5 nM Wee1A kinase and 2 nM Eu-labeled antibody in total assay volume of 15 μL. An Envision 2104 (Perkin-Elmer) Plate Reader with the following time-resolve fluorescence setting was used for performing LanthaScreen kinase binding assay. • Excitation 320 nm (30 nm bandpass) • Kinase Tracer Emission 665 nm (10 nm bandpass) • LanthaScreen Eu-anti-Tag Antibody Emission 615 nm (10 nm bandpass) • Dichroic Mirror Instrument dependent • Delay Time 100 μs • Integration Time 200 μs
(§1) To calculate the emission ratio, the acceptor/tracer emission ([…]) was divided by the antibody/donor emission ([…]) and the average of duplicate measurement was used for calculations. Data plotting, analysis of binding, and curve fitting was done using Excel add-in XLfit version 5.5.0.5 (IDBS, Guildford, United Kingdom). […] “NT” means not tested.

[2] = target: T2, Myt1 kinase (recombinant PMYT-1) (Homo sapiens, UniProt Q99640); test: Myt1 kinase binding assay (LanthaScreen Eu Kinase Binding Assay); settings: 3 nM tracer 178, 2.5 nM PMYT-1, 1 nM Eu-labeled antibody; read-out: Myt1 kinase Binding IC50
T2 construct: full length PMYT-1 was expressed by baculovirus in insect cells; purchased Invitrogen A30984; host or cells: insect cells (baculovirus)
T2 sequence (Q99640 1-499): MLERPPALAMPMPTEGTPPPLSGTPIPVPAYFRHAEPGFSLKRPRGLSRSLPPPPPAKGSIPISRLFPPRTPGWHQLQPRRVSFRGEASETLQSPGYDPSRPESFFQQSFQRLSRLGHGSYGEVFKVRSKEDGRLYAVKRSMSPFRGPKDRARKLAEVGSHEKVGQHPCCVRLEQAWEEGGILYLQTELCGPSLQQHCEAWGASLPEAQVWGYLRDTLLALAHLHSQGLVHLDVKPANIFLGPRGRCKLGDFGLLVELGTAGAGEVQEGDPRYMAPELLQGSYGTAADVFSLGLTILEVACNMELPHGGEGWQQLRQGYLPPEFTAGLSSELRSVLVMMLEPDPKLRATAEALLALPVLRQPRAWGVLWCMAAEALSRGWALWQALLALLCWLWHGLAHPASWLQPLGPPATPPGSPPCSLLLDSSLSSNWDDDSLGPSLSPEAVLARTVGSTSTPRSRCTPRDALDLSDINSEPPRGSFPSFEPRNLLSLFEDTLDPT
Description: as §1
We used a LanthaScreen Europium (Eu) Kinase Binding Assay to determine the binding affinities (IC50) of compounds to Myt1 kinase. […] “NT” designates that the compound was not tested in this assay.

[3] = target: T3, Wee1A kinase (CDK1 Tyr15 phosphorylation in ACHN renal cell carcinoma cells) (Homo sapiens, UniProt P30291); test: High-content imaging of pCdk1 Y15, Wee1A kinase target engagement in ACHN cells; format: cell-based; settings: 4 h treatment, nuclear positivity for pCdk1 Y15 vs DMSO control, read-out: CDK1 Tyr15 Phosphorylation EC50
T3 construct: pCDK1 Tyr15 immunofluorescence read-out
Description: Each of an ACHN renal cell carcinoma cell line (ATCC) and a DAOY medulloblastoma cell line, and an A427 lung cancer line were cultured in Minimum Essential Medium Eagle supplemented with 10% fetal calf serum (Sigma), 1% Penicillin-Streptomycin and 10 mM HEPES buffer (HyClone). Cell cultures were kept in a humidified incubator at 37 °C and 5% CO2. Cells were routinely tested for Mycoplasma contamination.
For target engagement assessment of Wee1A kinase inhibition, high-content imaging of ACHN renal cell carcinoma cells was used for quantification of CDK1 phosphorylated on tyrosine 15 by immunofluorescence (“IF”). 20,000 cells per well were seeded in tissue culture treated 96 well plates and treated with compounds at concentrations ranging from 7 to 5,000 nM or from 0.3 to 200 nM for 4h. Cells were fixated for 15 minutes in 4% paraformaldehyde solution, washed in PBS and permeabilized using 0.2% Triton X-100. Blocking was performed for 1 h at RT using Blocker FL Fluorescent Blocking Buffer (Thermo Scientific), thereafter cells were incubated with primary antibody (rabbit anti-pCDK1 Y^15, #4539, Cell Signaling Technology) at 4 °C ON. Alexa Fluor Plus 647 labelled goat anti-rabbit (A32733, Thermo Scientific) was used as secondary antibody. After washing in PBS, nuclei were stained with DAPI solution for 10 min at RT, protected from light. Cells were imaged using an ImageXpress Pico automated imaging system and CellReporter Xpress software (Molecular Devices). The percentage of cells with nuclear positivity for pCdk1 Y^15 compared to DMSO control was determined for each well and drug dose response curves and EC50 values were calculated and visualized using GraphPad Prism. Target engagement for Wee1A kinase can also be measured using the same AlphaLISA assay in OVCAR3 cells, an ovarian cancer cell line. NIH:OVCAR-3 (OVCAR3) cells are cultured in RPMI-1640 medium supplemented with 0.01 mg/ml insulin, 20% FBS, 1% Penicillin-Streptomycin and 10 mM HEPES buffer. 14,000 cells per well are seeded into 96 well tissue culture plates in full medium. Twenty-four hours post seeding, cells are treated with compound for 4 hours at concentrations ranging from 0.017 nM to 1000 nM.

T3 sequence (P30291 whole entry): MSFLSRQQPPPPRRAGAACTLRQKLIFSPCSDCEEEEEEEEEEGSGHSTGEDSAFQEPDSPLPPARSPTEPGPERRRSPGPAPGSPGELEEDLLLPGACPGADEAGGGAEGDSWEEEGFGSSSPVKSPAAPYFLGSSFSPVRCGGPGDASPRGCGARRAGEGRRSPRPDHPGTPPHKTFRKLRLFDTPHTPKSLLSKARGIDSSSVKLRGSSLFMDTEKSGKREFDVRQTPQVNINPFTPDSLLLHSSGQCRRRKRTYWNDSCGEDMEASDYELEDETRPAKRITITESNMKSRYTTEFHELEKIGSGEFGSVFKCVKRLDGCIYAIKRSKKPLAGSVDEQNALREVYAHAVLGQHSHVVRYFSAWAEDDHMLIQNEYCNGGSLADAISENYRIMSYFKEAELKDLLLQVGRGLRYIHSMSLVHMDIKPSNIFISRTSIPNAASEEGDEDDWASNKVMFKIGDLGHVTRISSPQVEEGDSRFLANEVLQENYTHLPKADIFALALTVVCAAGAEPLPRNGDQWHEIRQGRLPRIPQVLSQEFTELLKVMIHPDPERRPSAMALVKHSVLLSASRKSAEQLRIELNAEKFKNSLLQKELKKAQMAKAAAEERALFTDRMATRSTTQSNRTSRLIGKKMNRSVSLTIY
T1 sequence (P30291 whole entry): as above

Row | IC50 [1] [µM] | IC50 [2] [µM] | EC50 [3] [µM] | Compound
1 | < 0.01 | 0.02 to 0.1 | 0.1 to 0.5 | CCCn1c(=O)c2cnc(Nc3ccc4c(cnn4C)c3)nc2n1-c1cccc(OC2CCNCC2)n1 [Compound 110, 6-[(1-methyl-1H-indazol-5-yl)amino]-1-[6-(piperidin-4-yloxy)pyridin-2-yl]-2-propyl-1H,2H,3H-pyrazolo[3,4-d]pyrimidin-3-one]
2 | < 0.01 | 0.02 to 0.1 | < 0.1 | CCCn1c(=O)c2cnc(Nc3ccc4c(cnn4C)c3)nc2n1-c1cccc(OC2CCN(C)CC2)n1 [Compound 111, 6-[(1-methyl-1H-indazol-5-yl)amino]-1-{6-[(1-methylpiperidin-4-yl)oxy]pyridin-2-yl}-2-propyl-1H,2H,3H-pyrazolo[3,4-d]pyrimidin-3-one]
3 | < 0.01 | 0.02 to 0.1 | < 0.1 | C=CCn1c(=O)c2cnc(Nc3ccc4c(cnn4C)c3)nc2n1-c1cccc(N[C@@H]2CCN(C)C2)n1 [Compound 115]
4 | < 0.01 | 0.02 to 0.1 | < 0.1 | CCn1c(=O)c2cnc(Nc3ccccc3)nc2n1-c1cccc(OC2CCN(C)CC2)n1 [Compound 117, 6-anilino-2-ethyl-1-[6-(1-methyl-4-piperidyloxy)-2-pyridyl]-1,2-dihydro-3H-1,2,5,7-tetraazainden-3-one]
5 | < 0.01 | 0.1 to 0.5 | < 0.1 | C=CCn1c(=O)c2cnc(Nc3ccc4c(cnn4C)c3)nc2n1-c1cccc(N[C@@H]2CCN(C(C)C)C2)n1 [Compound 120, 6-[(1-methyl-1H-indazol-5-yl)amino]-2-(prop-2-en-1-yl)-1-(6-{[(3R)-1-(propan-2-yl)pyrrolidin-3-yl]amino}pyridin-2-yl)-1H,2H,3H-pyrazolo[3,4-d]pyrimidin-3-one]
6 | < 0.01 | 0.1 to 0.5 | 0.5 to 1 | C=CCn1c(=O)c2cnc(Nc3ccc4c(cnn4C)c3)nc2n1-c1cccc(NC2CCNCC2)n1 [Compound 122, 6-[(1-methyl-1H-indazol-5-yl)amino]-1-{6-[(piperidin-4-yl)amino]pyridin-2-yl}-2-(prop-2-en-1-yl)-1H,2H,3H-pyrazolo[3,4-d]pyrimidin-3-one]
7 | < 0.01 | 0.1 to 0.5 | 0.5 to 1 | C=CCn1c(=O)c2cnc(Nc3ccccc3)nc2n1-c1cccc(NC2CCNCC2)n1 [Compound 123, 6-(phenylamino)-1-{6-[(piperidin-4-yl)amino]pyridin-2-yl}-2-(prop-2-en-1-yl)-1H,2H,3H-pyrazolo[3,4-d]pyrimidin-3-one]
8 | < 0.01 | 0.02 to 0.1 | 0.5 to 1 | C=CCn1c(=O)c2cnc(Nc3ccc(Cl)cc3)nc2n1-c1cccc(NC2CCNCC2)n1 [Compound 124, 2-allyl-6-((4-chlorophenyl)amino)-1-(6-(piperidin-4-ylamino)pyridin-2-yl)-1,2-dihydro-3H-pyrazolo[3,4-d]pyrimidin-3-one]
9 | < 0.01 | 0.1 to 0.5 | 0.5 to 1 | C=CCn1c(=O)c2cnc(Nc3ccc(F)cc3)nc2n1-c1cccc(NC2CCNCC2)n1 [Compound 125, 6-[(4-fluorophenyl)amino]-1-{6-[(piperidin-4-yl)amino]pyridin-2-yl}-2-(prop-2-en-1-yl)-1H,2H,3H-pyrazolo[3,4-d]pyrimidin-3-one]
10 | < 0.01 | > 0.5 | 0.1 to 0.5 | C=CCn1c(=O)c2cnc(Nc3cccc(C)c3)nc2n1-c1cccc(NC2CCNCC2)n1 [Compound 126, 2-allyl-1-[6-(4-piperidylamino)-2-pyridyl]-6-m-toluidino-1,2-dihydro-3H-1,2,5,7-tetraazainden-3-one]
11 | < 0.01 | 0.1 to 0.5 | 0.1 to 0.5 | C=CCn1c(=O)c2cnc(Nc3ccc(F)c(C)c3)nc2n1-c1cccc(NC2CCNCC2)n1 [Compound 128, 2-allyl-6-(4-fluoro-3-toluidino)-1-[6-(4-piperidylamino)-2-pyridyl]-1,2-dihydro-3H-1,2,5,7-tetraazainden-3-one]
12 | < 0.01 | 0.02 to 0.1 | 0.5 to 1 | C=CCn1c(=O)c2cnc(Nc3ccc(OCC(F)(F)F)cc3)nc2n1-c1cccc(NC2CCNCC2)n1 [Compound 130, 2-allyl-1-[6-(4-piperidylamino)-2-pyridyl]-6-[p-(2,2,2-trifluoroethoxy)phenylamino]-1,2-dihydro-3H-1,2,5,7-tetraazainden-3-one]
13 | < 0.01 | 0.1 to 0.5 | 0.5 to 1 | C=CCn1c(=O)c2cnc(Nc3ccc(C(F)(F)F)cc3)nc2n1-c1cccc(NC2CCNCC2)n1 [Compound 131, 2-allyl-1-[6-(4-piperidylamino)-2-pyridyl]-6-[p-(trifluoromethyl)phenylamino]-1,2-dihydro-3H-1,2,5,7-tetraazainden-3-one]
14 | < 0.01 | 0.1 to 0.5 | 0.1 to 0.5 | CCn1c(=O)c2cnc(Nc3cnn(C)c3)nc2n1-c1cccc(OC2CCN(C)CC2)n1 [Compound 132, 2-ethyl-1-[6-(1-methyl-4-piperidyloxy)-2-pyridyl]-6-(1-methyl-4-pyrazolylamino)-1,2-dihydro-3H-1,2,5,7-tetraazainden-3-one]
15 | < 0.01 | 0.1 to 0.5 | 0.1 to 0.5 | C=CCn1c(=O)c2cnc(Nc3ccc(Cl)c(C)c3)nc2n1-c1cccc(NC2CCNCC2)n1 [Compound 133, 2-allyl-6-(4-chloro-3-toluidino)-1-[6-(4-piperidylamino)-2-pyridyl]-1,2-dihydro-3H-1,2,5,7-tetraazainden-3-one]
16 | < 0.01 | 0.1 to 0.5 | > 1 | C=CCn1c(=O)c2cnc(Nc3ccc(C#N)c(C)c3)nc2n1-c1cccc(NC2CCNCC2)n1 [Compound 134, 2-methyl-4-[(3-oxo-1-{6-[(piperidin-4-yl)amino]pyridin-2-yl}-2-(prop-2-en-1-yl)-1H,2H,3H-pyrazolo[3,4-d]pyrimidin-6-yl)amino]benzonitrile]
